Experimental data as given in patent US20230036051A1, “C[…] STABILITY” (priority 2021, published 2023).

Experiment: Storage stability of THC in ground cannabis flower, non-accelerated storage conditions
Assay type: physicochemical
Conditions: loss of THC content; positive control, amount not given
Protocol: After analyzing initial cannabinoid content, an amount of terpene blend 1 was added to 3.5 (±0.05) g of ground flower (1, 2, or 3%, by weight of the dried cannabis) was applied to the product and stored in an air-tight container protected from light. All experiments were performed in triplicate. The testing conditions included: (1) Non-Accelerated Storage Conditions without exogenous terpenes “Control”; (2) Accelerated Conditions (+3.0% by weight hydrogen peroxide, initially, and refreshed each week) without exogenous terpenes, and (3) Accelerated Conditions with exogenous terpenes “H2O2+Terpene” (Blend 1). (FIG. 2). Butylated hydroxytoluene (BHT), a preservative used in food, known to prevent radical-mediated oxidation was employed as a positive control. Each container was opened twice/week and stirred, simulating usual conditions for access of medicinal cannabis. The cannabinoid content was analyzed after 24 and 81 days of storage.
The stabilizing effect was observed after 81 days (TABLE 2) and also between days 24 and 81 (TABLE 3).

Cc1cc(C(C)(C)C)c(O)c(C(C)(C)C)c1 [BHT, Butylated hydroxytoluene]
Relative % Loss 0 to 81 Days: 7.90%
Relative % Loss 24 to 81 Days: 18.65%
